Test results published in US8017775B2, “1-2-dihydroquinoline derivative having glucocorticoid receptor binding activity” (Santen Pharmaceutical Co., Ltd., priority 2005, dated 2011).

What follows are compounds tested against T1, Recombinant human GR (Homo sapiens, UniProt P04150) (assay: GR competitor assay by fluorescence polarization (GR binding ratio)). Details: positive control 2 mM dexamethasone, a GR binding ratio of 100% or more is indicated by 100%.
T1 construct: purchased Invitrogen P2816
T1 sequence (P04150 1-777): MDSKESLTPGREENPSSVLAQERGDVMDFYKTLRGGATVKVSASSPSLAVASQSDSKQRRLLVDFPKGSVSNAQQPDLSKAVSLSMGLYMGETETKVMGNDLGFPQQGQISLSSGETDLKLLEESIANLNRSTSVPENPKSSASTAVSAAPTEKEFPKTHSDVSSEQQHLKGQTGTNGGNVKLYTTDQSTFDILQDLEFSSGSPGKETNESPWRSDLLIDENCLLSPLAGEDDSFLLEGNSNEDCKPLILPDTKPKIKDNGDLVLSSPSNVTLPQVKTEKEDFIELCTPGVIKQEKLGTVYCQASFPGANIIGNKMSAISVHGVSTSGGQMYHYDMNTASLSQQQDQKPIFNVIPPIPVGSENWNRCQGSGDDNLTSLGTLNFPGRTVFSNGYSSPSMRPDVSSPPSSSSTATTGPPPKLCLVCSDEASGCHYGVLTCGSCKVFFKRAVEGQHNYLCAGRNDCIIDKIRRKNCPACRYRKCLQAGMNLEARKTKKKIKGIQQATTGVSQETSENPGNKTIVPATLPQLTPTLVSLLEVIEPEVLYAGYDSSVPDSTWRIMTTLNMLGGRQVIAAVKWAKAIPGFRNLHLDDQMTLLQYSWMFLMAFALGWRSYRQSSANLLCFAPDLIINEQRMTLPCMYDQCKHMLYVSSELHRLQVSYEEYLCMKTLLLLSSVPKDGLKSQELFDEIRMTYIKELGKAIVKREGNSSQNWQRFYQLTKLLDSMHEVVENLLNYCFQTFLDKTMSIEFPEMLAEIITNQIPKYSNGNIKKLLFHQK
Description: 1. Evaluation Test for Binding Activity to Glucocorticoid Receptor (hereinafter referred to as “GR”)
In order to evaluate a binding activity to GR, a receptor competitor assay was carried out by a fluorescence polarization method. In the assay, a GR competitor assay kit (manufactured by Invitrogen, cat No. P2816) was used, and a procedure was carried out according to the protocol attached to the kit. Hereinafter, the specific method will be described.
GR screening buffer: A buffer containing 10 mM potassium phosphate (pH 7.4), 20 mM sodium molybdate (Na2MoO4), 0.1 mM ethylene diamine tetraacetic acid (EDTA), 5 mM dithiothreitol (DTT), 0.1 mM stabilizing peptide and 2% dimethylsulfoxide was prepared.
4×GS1 solution: Fluormone™ GS1, which is a fluorescent glucocorticoid ligand, was diluted with GR screening buffer, whereby a 4 nM solution was prepared.
4×GR solution: Recombinant human GR was diluted with GR screening buffer, whereby a 16 nM solution was prepared.
After a test compound was dissolved in dimethylsulfoxide, the resulting solution was diluted with GR screening buffer, whereby a 20 μM test compound solution was prepared.
1) The test compound solution was added in an amount of 25 μL or 10 μL into each well of a 96-well or 384-well plate, and then, 4×GS1 solution and 4×GR solution were added in an amount of 12.5 μL or 5 μL into each well, respectively.
2) The plate was incubated in a dark place at room temperature for 2 to 4 hours.
3) By using a multimode plate reader, Analyst™ HT (manufactured by LJL Biosystems), fluorescence polarization of each well was measured. As the blank, a well containing GR screening buffer in place of the test compound and 4×GS1 solution was used.
4) The same procedure as that in the above 1) to 3) was carried out except that GR screening buffer was used in place of the test compound solution, and the obtained result was taken as the negative control.
5) The same procedure as that in the above 1) to 3) was carried out except that 2 mM dexamethasone was used in place of the test compound solution, and the obtained result was taken as the positive control.
A GR binding ratio (%) was calculated from the following equation.
GR binding ratio (%)=100×[1−(fluorescence polarization of test compound solution−fluorescence polarization of positive control solution)/(fluorescence polarization of negative control solution−fluorescence polarization of positive control solution)]
For `COc1ccc(C(=O)OCc2c(-c3ccc(F)cc3OC)ccc3c2C(C)=CC(C)(C)N3)cc1` [Compound 1-19, 6-(4-Fluoro-2-methoxyphenyl)-5-(4-methoxybenzoyloxymethyl)-2,2,4-trimethyl-1,2-dihydroquinoline], the “GR Binding ratio (%)” value was ≥ 100%. For `COc1cc(F)ccc1-c1ccc2c(c1COC(=O)c1cccs1)C(C)=CC(C)(C)N2` [Compound 1-21, 6-(4-Fluoro-2-methoxyphenyl)-5-[(thiophene-2-yl)carbonyloxymethyl]-2,2,4-trimethyl-1,2-dihydroquinoline], the “GR Binding ratio (%)” value was 82%. For `COc1cc(F)ccc1-c1ccc2c(c1COC(=O)c1ccccc1C)C(C)=CC(C)(C)N2` [Compound 1-46, 6-(4-Fluoro-2-methoxyphenyl)-5-(2-methylbenzoyloxymethyl)-2,2,4-trimethyl-1,2-dihydroquinoline], the “GR Binding ratio (%)” value was ≥ 100%. In the case of `COc1cc(F)ccc1-c1ccc2c(c1COc1cccc(C)c1)C(C)=CC(C)(C)N2` [Compound 3-21, 6-(4-Fluoro-2-methoxyphenyl)-5-(3-methylphenoxymethyl)-2,2,4-trimethyl-1,2-dihydroquinoline], the “GR Binding ratio (%)” value is reported as 97%. In the case of `COc1cc(F)ccc1-c1ccc2c(c1COc1ccccc1C)C(C)=CC(C)(C)N2` [Compound 3-22, 6-(4-Fluoro-2-methoxyphenyl)-5-(2-methylphenoxymethyl)-2,2,4-trimethyl-1,2-dihydroquinoline], the “GR Binding ratio (%)” value is reported as 99%. With `CCc1ccccc1OCc1c(-c2ccc(F)cc2OC)ccc2c1C(C)=CC(C)(C)N2` [Compound 3-33, 5-(2-Ethylphenoxymethyl)-6-(4-fluoro-2-methoxyphenyl)-2,2,4-trimethyl-1,2-dihydroquinoline] the “GR Binding ratio (%)” value was ≥ 100%. `COc1cc(F)ccc1-c1ccc2c(c1COc1cc(C)cc(C)c1C)C(C)=CC(C)(C)N2` [Compound 3-44, 6-(4-Fluoro-2-methoxyphenyl)-5-(2,3,5-trimethylphenoxymethyl)-2,2,4-trimethyl-1,2-dihydroquinoline] was tested, and the “GR Binding ratio (%)” value was 98%. `COc1cc(F)c(F)cc1-c1ccc2c(c1COc1ccccc1C)C(C)=CC(C)(C)N2` [Compound 3-45, 6-(4,5-Difluoro-2-methoxyphenyl)-5-(2-methylphenoxymethyl)-2,2,4-trimethyl-1,2-dihydroquinoline] was tested, and the “GR Binding ratio (%)” value was 98%. `COc1cc(F)ccc1-c1ccc2c(c1COc1cc(F)ccc1C)C(C)=CC(C)(C)N2` [Compound 3-48, 6-(4-Fluoro-2-methoxyphenyl)-5-(5-fluoro-2-methylphenoxymethyl)-2,2,4-trimethyl-1,2-dihydroquinoline] was tested, and the “GR Binding ratio (%)” value was ≥ 100%. For `COc1cc(F)ccc1-c1ccc2c(c1COc1cc(Cl)ccc1C)C(C)=CC(C)(C)N2` [Compound 3-56, 6-(4-Fluoro-2-methoxyphenyl)-5-(5-chloro-2-methylphenoxymethyl)-2,2,4-trimethyl-1,2-dihydroquinoline], the “GR Binding ratio (%)” value was 98%. With `COc1cc(F)c(F)cc1-c1ccc2c(c1COc1cc(F)ccc1C)C(C)=CC(C)(C)N2` [Compound 3-57, 6-(4,5-Difluoro-2-methoxyphenyl)-5-(5-fluoro-2-methylphenoxymethyl)-2,2,4-trimethyl-1,2-dihydroquinoline] the “GR Binding ratio (%)” value was 98%. In the case of `COc1cc(F)ccc1-c1ccc2c(c1COc1cc(C)ccc1C)C(C)=CC(C)(C)N2` [Compound 3-58, 5-(2,5-Dimethylphenoxymethyl)-6-(4-fluoro-2-methoxyphenyl)-2,2,4-trimethyl-1,2-dihydroquinoline], the “GR Binding ratio (%)” value is reported as ≥ 100%. With `COc1ccc(C)cc1OCc1c(-c2ccc(F)cc2OC)ccc2c1C(C)=CC(C)(C)N2` [Compound 3-59, 6-(4-Fluoro-2-methoxyphenyl)-5-(2-methoxy-5-methylphenoxymethyl)-2,2,4-trimethyl-1,2-dihydroquinoline] the “GR Binding ratio (%)” value was ≥ 100%. For `COc1ccc([N+](=O)[O-])cc1OCc1c(-c2ccc(F)cc2OC)ccc2c1C(C)=CC(C)(C)N2` [Compound 3-61, 6-(4-Fluoro-2-methoxyphenyl)-5-(2-methoxy-5-nitrophenoxymethyl)-2,2,4-trimethyl-1,2-dihydroquinoline], the “GR Binding ratio (%)” value was ≥ 100%. With `C/C=C/c1ccccc1OCc1c(-c2ccc(F)cc2OC)ccc2c1C(C)=CC(C)(C)N2` [Compound 3-62, 6-(4-Fluoro-2-methoxyphenyl)-5-[2-(1-propenyl)phenoxymethyl]-2,2,4-trimethyl-1,2-dihydroquinoline] the “GR Binding ratio (%)” value was ≥ 100%. `COc1ccc(F)cc1OCc1c(-c2ccc(F)cc2OC)ccc2c1C(C)=CC(C)(C)N2` [Compound 3-67, 5-(5-Fluoro-2-methoxyphenoxymethyl)-6-(4-fluoro-2-methoxyphenyl)-2,2,4-trimethyl-1,2-dihydroquinoline] was tested, and the “GR Binding ratio (%)” value was ≥ 100%. For `COc1cc(F)ccc1-c1ccc2c(c1COc1ccccc1CCO)C(C)=CC(C)(C)N2` [Compound 3-68, 6-(4-Fluoro-2-methoxyphenyl)-5-[2(2-hydroxyethyl)phenoxymethyl)-2,2,4-trimethyl-1,2-dihydroquinoline], the “GR Binding ratio (%)” value was ≥ 100%. With `COc1cc(F)ccc1-c1ccc2c(c1COc1ccccc1C(C)C)C(C)=CC(C)(C)N2` [Compound 3-69, 5-(2-Isopropylphenoxymethyl)-6-(4-fluoro-2-methoxyphenyl)-2,2,4-trimethyl-1,2-dihydroquinoline] the “GR Binding ratio (%)” value was ≥ 100%. With `COc1cc(F)ccc1-c1ccc2c(c1COc1cc([N+](=O)[O-])ccc1C)C(C)=CC(C)(C)N2` [Compound 3-72, 6-(4-Fluoro-2-methoxyphenyl)-5-(2-methyl-5-nitrophenoxymethyl)-2,2,4-trimethyl-1,2-dihydroquinoline] the “GR Binding ratio (%)” value was ≥ 100%. For `C=CCc1ccccc1OCc1c(-c2ccc(F)cc2OC)ccc2c1C(C)=CC(C)(C)N2` [Compound 3-74, 6-(4-Fluoro-2-methoxyphenyl)-5-(2-allylphenoxymethyl)-2,2,4-trimethyl-1,2-dihydroquinoline], the “GR Binding ratio (%)” value was ≥ 100%. `COc1cc(F)ccc1-c1ccc2c(c1COc1cc(Cl)ccc1Cl)C(C)=CC(C)(C)N2` [Compound 3-85, 5-(2,5-Diclorophenoxymethyl)-6-(4-fluoro-2-methoxyphenyl)-2,2,4-trimethyl-1,2-dihydroquinoline] was tested, and the “GR Binding ratio (%)” value was 95%. `COc1cc(F)ccc1-c1ccc2c(c1COc1cc([N+](=O)[O-])ccc1C#N)C(C)=CC(C)(C)N2` [Compound 3-91, 5-(2-Cyano-5-nitrophenoxymethyl)-6-(4-fluoro-2-methoxyphenyl)-2,2,4-trimethyl-1,2-dihydraquinoline] was tested, and the “GR Binding ratio (%)” value was ≥ 100%. In the case of `COc1cc(F)ccc1-c1ccc2c(c1COc1cc(C=O)ccc1C)C(C)=CC(C)(C)N2` [Compound 3-94, 6-(4-Fluoro-2-methoxyphenyl)-5-(5-formyl-2-methylphenoxymethyl)-2,2,4-trimethyl-1,2-dihydroquinoline], the “GR Binding ratio (%)” value is reported as ≥ 100%. `COc1ccc(Cl)cc1-c1ccc2c(c1COc1ccccc1CCO)C(C)=CC(C)(C)N2` [Compound 3-98, 6-(5-Chloro-2-methoxyphenyl)-5-[2-(2-Hydroxyethyl)phenoxymethyl]-2,2,4-trimethyl-1,2-dihydroquinoline] was tested, and the “GR Binding ratio (%)” value was ≥ 100%. `COc1ccc(F)cc1-c1ccc2c(c1COc1ccccc1CCO)C(C)=CC(C)(C)N2` [Compound 3-99, 6-(5-Fluoro-2-methoxyphenyl)-5-[2-(2-hydroxyethyl)phenoxymethyl]-2,2,4-trimethyl-1,2-dihydroquinoline] was tested, and the “GR Binding ratio (%)” value was ≥ 100%.
